Measurements taken from patent US8940863B2, “Selective anticancer chimeric peptides which bind neuropilin receptor” (Stella Pharma Corporation, priority 2008, dated 2015).
Where two headings read alike, the source gives them in different places. Non-standard residues stand in square brackets, D forms with d. Residues, ends and D or L forms follow the SMILES beside them. No end group written: not given here.

What was measured:
[1] = tested on: PE cell (pancreatic epidermal); assay: Cell viability assay (WST-8); format: cell-based
Excerpt: (§1) Correlation between IC50 values was observed.

T47D = assay: Cell viability assay (WST-8); format: cell-based, human
Excerpt: as §1

SU.86.86 = details: for IC50: 48 h
MRC-5 = assay: Cell viability assay (WST-8)
[2] = target: recombinant human EGF receptor (rhEGFR) (Homo sapiens, UniProt P00533); assay: BIACORE binding to EGFR protein
Method: Surface plasmon resonance (SPR) experiments were performed with a BIACORE biosensor system 3000 (BIACORE Inc., Uppsala, Sweden). About 5000 RU of streptavidin (Sigma) was immobilized on the surface of CM5 sensor chips via N-hydroxysuccinimide and N-ethyl-N′-(dimethylaminopropyl) carbodiimide activation chemistry, and then 2000-3000 RU of peptide conjugated with biotin were injected over the streptavidin-immobilized sensor chip. As a control of nonspecific binding, the unreacted carboxymethyl groups of a sensor chip without immobilized streptavidin were blocked with ethanolamine. As an analyte, cell surface proteins which were prepared using the Mem-PER eukaryotic membrane protein extraction reagent kit (Pierce) were injected over the flow-cell in the flow rate of […]. at 25° C. […] All protein concentrations used in these experiments were determined by the Bradford method (Bradford M M. A rapid and sensitive method for the quantitation of microgram quantities of protein utilizing the principle of protein-dye binding. Anal Biochem 1976; 72:248-54). […]
Among the aforementioned mutated peptides, first, paying attention to the second H which has charge, K- and R-mutants were chemically synthesized. As described in Example 1, using BIACORE, binding affinity with recombinant human EGFR was evaluated by comparison with that of wild-type EGFR-binding peptide. […]

H322 = details: H322; 72 hours
HEK293T = format: cell-based
HuCCT-1 = details: 48 h
[3] = tested on: HC cell (hepatocyte cell); assay: Cell viability assay (WST-8); format: cell-based, human; details: Human normal hepatocyte cell; 48 hours (Table 8); read-out: IC50
Excerpt: as §1

SU8686 = assay: Annexin V flow cytometry; format: cell-based, human; details: 10 μM, three hours at 37° C.
Method: SU8686 cells were incubated with Sema3A (363-377)-kLytic peptide (10 μM) for three hours at 37° C., and were analyzed for Annexin V labeling by dual-color flow cytometry.

A172 = assay: Cell viability assay (WST-8); format: cell-based; details: 72 h
KCCT873 = assay: Cell viability assay (WST-8); format: cell-based; details: 72 h
U251 = details: 72 h
WI-38 = details: 72 h

Compound: CC(C)C[C@H](NC(=O)[C@H](CCCCN)NC(=O)[C@@H](CC(C)C)NC(=O)[C@H](CC(C)C)NC(=O)[C@H](CCCCN)NC(=O)[C@H](CCCCN)NC(=O)[C@H](CC(C)C)NC(=O)[C@@H](CC(C)C)NC(=O)[C@@H](CCCCN)NC(=O)[C@H](CCCCN)NC(=O)[C@H](CC(C)C)NC(=O)[C@H](CC(C)C)NC(=O)[C@@H](CCCCN)NC(=O)[C@H](CC(C)C)NC(=O)[C@@H](N)CC(C)C)C(=O)O [nLytic, LLKLLKKLLKKLLKL] (H-LL[dK]LLK[dK][dL]LKKL[dL]KL-OH; N-terminus and C-terminus assumed)
- IC50 ([1]; Pancreatic epithelium normal cells, 48 hours (Table 5), read-out: IC50): > 50 µM
- IC50 (T47D; T47D breast cancer cells, 48 hours (Table 6), read-out: IC50): 12.5 µM
- IC50 (BT-20; BT20 breast cancer cells, 48 hours (Table 6)): 38 µM
- IC50 (BxPC-3; 48 h): 38.5 µM
- IC50 (SU.86.86): 19.5 µM
- IC50 (MDA-MB-231; 48 h): 29.6 µM
- IC50 (CFPAC-1; CFPAC-1 cancer cells, 48 hours (Table 5)): 22.6 µM
- IC50 (Panc-1; Panc-1 cancer cells, 48 hours (Table 5)): 28.2 µM

Compound: YHWYGYTPQNVIGGGLKLLKKLLKKLLKLL-NH2 (C-terminal amide; EB-original Lytic peptide; position 18, 21, 23, 24 and 28 are D-amino acids, and -CONH2 is existing at C-terminal.)
- cytotoxicity to normal cell line MRC-5 (MRC-5; MRC-5, 72 hours): killed even normal cell line (MRC-5) at lower concentration

Compound: YRWYGYTPQNVI (EGFR binding peptide) [R-substituted peptide]
- biosensor response compared with wild-type EGFR-binding peptide [2]: response of two fold of wild-type

Compound: YHWYGYTPQNVIGGGLKLLKKLLKKLLKLL-NH2 (YHWYGYTPQNVIGGGLK[dL]LK[dK]L[dL][dK]KLL[dK]LL-NH2; N-terminus assumed; SMILES CC[C@H](C)[C@H](NC(=O)[C@@H](NC(=O)[C@H](CC(N)=O)NC(=O)[C@H](CCC(N)=O)NC(=O)[C@@H]1CCCN1C(=O)[C@@H](NC(=O)[C@H](Cc1ccc(O)cc1)NC(=O)CNC(=O)[C@H](Cc1ccc(O)cc1)NC(=O)[C@H](Cc1c[nH]c2ccccc12)NC(=O)[C@H](Cc1c[nH]cn1)NC(=O)[C@@H](N)Cc1ccc(O)cc1)[C@@H](C)O)C(C)C)C(=O)NCC(=O)NCC(=O)NCC(=O)N[C@@H](CC(C)C)C(=O)N[C@@H](CCCCN)C(=O)N[C@H](CC(C)C)C(=O)N[C@@H](CC(C)C)C(=O)N[C@@H](CCCCN)C(=O)N[C@H](CCCCN)C(=O)N[C@@H](CC(C)C)C(=O)N[C@H](CC(C)C)C(=O)N[C@H](CCCCN)C(=O)N[C@@H](CCCCN)C(=O)N[C@@H](CC(C)C)C(=O)N[C@@H](CC(C)C)C(=O)N[C@H](CCCCN)C(=O)N[C@@H](CC(C)C)C(=O)N[C@@H](CC(C)C)C(N)=O) [EB-original lytic peptide]
- cell-killing effect of chimeric peptide compared with lytic moiety alone (H322): did not show enhancement of cytotoxic activity

Compound: CC(C)C[C@H](NC(=O)[C@H](CCCCN)NC(=O)[C@@H](CC(C)C)NC(=O)[C@H](CC(C)C)NC(=O)[C@H](CCCCN)NC(=O)[C@H](CCCCN)NC(=O)[C@H](CC(C)C)NC(=O)[C@@H](CC(C)C)NC(=O)[C@@H](CCCCN)NC(=O)[C@H](CCCCN)NC(=O)[C@H](CC(C)C)NC(=O)[C@H](CC(C)C)NC(=O)[C@@H](CCCCN)NC(=O)[C@H](CC(C)C)NC(=O)[C@H](CC(C)C)NC(=O)CNC(=O)CNC(=O)[C@H](CCCNC(=N)N)NC(=O)[C@@H]1CCCN1C(=O)[C@H](Cc1ccc(O)cc1)NC(=O)[C@@H]1CCCN1C(=O)[C@@H](NC(=O)[C@H](CCCNC(=N)N)NC(=O)CN)C(C)C)C(=O)O [Sema3A(aa371-377)-nLytic] (H-GRVPYPRGGLL[dK]LLK[dK][dL]LKKL[dL]KL-OH; N-terminus and C-terminus assumed)
- IC50 ([1]; 48 h): > 50 µM
- IC50 (T47D; 48 h): 3.7 µM
- IC50 (HEK293T; 48 h): > 20 µM
- IC50 (BT-20; 48 h): 11.4 µM
- IC50 (BxPC-3; 48 h): 14.7 µM
- IC50 (SU.86.86): 8 µM
- IC50 (MDA-MB-231; 48 h): 8.1 µM
- IC50 (SK-BR-3; 48 h): 14.5 µM
- IC50 (CFPAC-1; 48 h): 9.2 µM
- IC50 (Panc-1; 48 h): 14.1 µM
- IC50 (HuCCT-1): 7.9 µM

Compound: CC(C)C[C@H](NC(=O)[C@H](CC(C)C)NC(=O)[C@@H](CCCCN)NC(=O)[C@@H](CCCCN)NC(=O)[C@H](CC(C)C)NC(=O)[C@@H](CC(C)C)NC(=O)[C@H](CCCCN)NC(=O)[C@H](CC(C)C)NC(=O)[C@@H](CC(C)C)NC(=O)[C@H](CC(C)C)NC(=O)[C@H](CCCCN)NC(=O)CNC(=O)CNC(=O)CNC(=O)[C@H](CCCNC(=N)N)NC(=O)[C@@H]1CCCN1C(=O)[C@H](Cc1ccc(O)cc1)NC(=O)[C@@H]1CCCN1C(=O)[C@@H](NC(=O)[C@H](CCCNC(=N)N)NC(=O)CNC(=O)[C@H](CCC(N)=O)NC(=O)[C@H](Cc1ccc(O)cc1)NC(=O)[C@@H]1CCCN1C(=O)[C@@H](NC(=O)[C@H](Cc1c[nH]c2ccccc12)NC(=O)[C@H](CCC(N)=O)NC(=O)[C@H](Cc1ccc(O)cc1)NC(=O)[C@@H](N)CC(N)=O)C(C)C)C(C)C)C(=O)N[C@@H](CCCCN)C(=O)N[C@H](CC(C)C)C(=O)N[C@@H](CC(C)C)C(=O)N[C@@H](CCCCN)C(=O)N[C@@H](CCCCN)C(=O)N[C@@H](CCCCN)C(=O)O [Sema3A(aa363-377)-kLytic] (H-NYQWVPYQGRVPYPRGGGKL[dL]LK[dL]L[dK][dK]LLK[dL]LKKK-OH; N-terminus and C-terminus assumed)
- IC50 ([1]; Pancreatic epidermal cell, normal cells, 48 hours (Table 8), read-out: IC50): > 20 µM
- IC50 [3]: 37.5 µM
- Annexin V-positive dead cells (SU8686; listed as Sema3A (363-377)-kLytic): increased
- Annexin V-positive dead cells (SU8686; listed as Sema3A(363-377)-kLytic): induces Annexin V-positive expression
- IC50 (BxPC-3; 48 h): 5.7 ± 2.3 µM
- IC50 (SU.86.86): 5.2 ± 0.4 µM
- IC50 (CFPAC-1; 48 h): 6.7 ± 0.1 µM
- IC50 (Panc-1; 48 h): 13 ± 2.7 µM
- IC50 (MRC-5; MRC-5 normal cells, 48 hours (Table 8)): > 50 µM

Compound: CC[C@H](C)[C@H](NC(=O)[C@H](CC(C)C)NC(=O)[C@H](CCC(N)=O)NC(=O)[C@@H](N)CCCCN)C(=O)N[C@@H](CCCNC(=N)N)C(=O)N[C@@H](Cc1ccccc1)C(=O)N[C@@H](CC(C)C)C(=O)N[C@@H](CCCCN)C(=O)N[C@@H](CCCNC(=N)N)C(=O)N[C@@H](CC(C)C)C(=O)N[C@@H](CC(=O)O)C(=O)N[C@@H](CCCNC(=N)N)C(=O)N[C@@H](CC(N)=O)C(=O)NCC(=O)NCC(=O)NCC(=O)N[C@@H](CCCCN)C(=O)N[C@@H](CC(C)C)C(=O)N[C@H](CC(C)C)C(=O)N[C@@H](CC(C)C)C(=O)N[C@@H](CCCCN)C(=O)N[C@H](CC(C)C)C(=O)N[C@@H](CC(C)C)C(=O)N[C@H](CCCCN)C(=O)N[C@H](CCCCN)C(=O)N[C@@H](CC(C)C)C(=O)N[C@@H](CC(C)C)C(=O)N[C@@H](CCCCN)C(=O)N[C@H](CC(C)C)C(=O)N[C@@H](CC(C)C)C(=O)N[C@@H](CCCCN)C(=O)N[C@@H](CCCCN)C(=O)N[C@@H](CCCCN)C(=O)O [IL4-lytic (L, D)] (H-KQLIRFLKRLDRNGGGKL[dL]LK[dL]L[dK][dK]LLK[dL]LKKK-OH; N-terminus and C-terminus assumed)
- IC50 ([1]; PE normal cells, 72 hours, Mean ± SD (Table 4), read-out: IC50): > 20 µM
- IC50 (HEK293T; 72 h): 14.2 ± 1.3 µM
- IC50 (A172): 6.8 ± 0.4 µM
- IC50 (KCCT873): 5.9 ± 0.6 µM
- IC50 (U251): 6.6 ± 0.4 µM
- IC50 (BxPC-3; 72 h): 6.8 ± 0.3 µM
- IC50 (WI-38): 16.1 ± 0.5 µM
- IC50 (MDA-MB-231; 72 h): 5.7 ± 0.4 µM

Compound: YKWYGYTPQNVI (EGFR binding peptide) [K-substituted peptide]
- biosensor response compared with wild-type EGFR-binding peptide [2]: some enhancement of biosensor response

Compound: NYQWVPYQGRVPYPRGGGKLLLKLLKKLLKLLKKK (Sema3A-lyticL chimeric peptide)
- cell-killing effect compared with LyticL alone (SU.86.86; SU86.86, 72 hours): cell-killing effect was enhanced
- cell-killing effect compared with LyticL alone (SK-BR-3; SKBR3, 72 hours): cell-killing effect was enhanced
